Converted amounts (≈) assume the structure as drawn. Like-named read-outs stand apart in the source and are kept apart here.
Columns and labels:
Format in all cases: physicochemical
[1] = Hygroscopicity measurements (DVS sorption/desorption profiles); details: 25° C.
Description: The sorption/desorption profiles of the forms of the present invention were tested at 25° C. under 0-90% relative humidity. The forms of the present invention were classified according to the following criteria: Deliquescent: Sufficient water is absorbed to form a liquid. […] Hygroscopic: Increase in mass is less than 15% and equal to or greater than 2%. Slightly hygroscopic: Increase in mass is less than 2% and equal to or greater than 0.2%. Non-hygroscopic: Increase in mass is less than 0.2%.

[2] = Physical stability measurements (XRPD, DSC, TGA)
Description: Testing conditions: 40° C., 60° C., 40° C./RH 75%, 60° C./RH 75%, light
Testing procedure: About 50 mg of a febuxostat form were weighed in glass vial for testing the physical stability and were stored under different conditions for 1 week and 2 weeks, separately. The same febuxostat form was stored at −20° C. as control. XRPD, DSC and TGA of each of the febuxostat forms were measured at the end of the first and second weeks.

[3] = Aqueous solubility measurements; details: for solubility at 24 h: thermodynamic from solid, read-out: HPLC solubility; for pH: final pH of saturated solution
Description: Testing media: water, pH 1.2, 4.5, 6.8, 7.4 USP buffers, 0.01 N HCl, 0.1 N HCl, SGF, FaSSIF, FeSSIF.
The various testing media were prepared as follows:
pH 1.2 (USP): 50 mL of 0.2 M potassium chloride solution were placed in a 200 mL volumetric flask to which 85.0 mL of 0.2M hydrochloric acid solution were added followed by the addition of water to obtain the required volume.
pH 4.5 (USP): 50 mL of 0.2 M potassium biphthalate solution were placed in a 200 mL volumetric flask to which 8.8 mL of 0.2 M sodium hydroxide solution were added followed by the addition of water to obtain the required volume.
pH 6.8 (USP): 50 mL of 0.2 M monobasic potassium phosphate solution were placed in a 200 mL volumetric flask to which 22.4 mL of 0.2 M sodium hydroxide solution were added followed by the addition of water to obtain the required volume.
pH 7.4 (USP): 50 mL of 0.2 M monobasic potassium phosphate solution were placed in a 200 mL volumetric flask to which 39.1 mL of 0.2 M sodium hydroxide solution were added followed by the addition of water to obtain the required volume.
Simulated gastric fluid (SGF): 0.01 N HCl, 0.05% sodium lauryl sulfate, and 0.2% NaCl.
Fasted state simulated intestinal fluid (FaSSIF): 29 mM NaH2PO4, 3 mM Na taurocholate, 0.75 mM lecithin, 103 mM NaCl, and NaOH to obtain pH 6.5.
Fed state simulated intestinal fluid (FeSSIF): 144 mM acetic acid, 15 mM Na taurocholate, 3.75 mM lecithin, 204 mM NaCl, and NaOH to obtain pH 5.0.
Testing procedure: The tested febuxostat form was placed in each of the different media and was kept shaken for 24 hours at 25° C. Then, the saturated solution was filtered. The concentration of the febuxostat form in filtrate was determined by HPLC. The final pH was then tested. The test was conducted in duplication.

[4] = Bulk and tapped density measurements
Description: Bulk density testing: A febuxostat form in an amount which is sufficient to complete the test was passed through a 1.0 mm (No. 18) screen to break up agglomerates that may have formed during storage. The febuxostat form was then weighed (M) and the powder was added into a 10 mL graduated cylinder. The powder was carefully leveled without compacting, and the unsettled apparent volume, Vo, was read. The bulk density, in g per mL, was calculated by the formula: Bulk Density=M/Vo Tapped density testing: A febuxostat form in an amount which is sufficient to complete the test was passed through a 1.0 mm (No. 18) screen to break up agglomerates that may have formed during storage. The febuxostat form was then weighed and the powder was added into a 10 mL graduated cylinder. The powder was carefully leveled without compacting. The cylinder was tapped 500 times initially and the tapped volume, Va, was measured to the nearest graduated unit. The tapping was then repeated for additional 750 times and the tapped volume, Vb, was measured to the nearest graduated unit. If the difference between the two volumes was less than 2%, Vb was taken as the final tapped volume, Vf. The tapped density, in g per mL, was calculated by the formula: Tapped Density=M/Vf

[5] = media 0.01N HCl, 24 hours at 25° C.
[6] = media 0.1N HCl, 24 hours at 25° C.
[7] = media FaSSIF, 24 hours at 25° C.
[8] = media FeSSIF, 24 hours at 25° C.
[9] = media pH 1.2 (USP), 24 hours at 25° C.
[10] = media pH 4.5 (USP), 24 hours at 25° C.
[11] = media pH 6.8 (USP), 24 hours at 25° C.
[12] = media pH 7.4 (USP), 24 hours at 25° C.

## Cc1nc(-c2ccc(OCC(C)C)c(C#N)c2)sc1C(=O)O [Form V, 2-(3-cyano-4-isobutoxyphenyl)-4-methyl-5-thiazolecarboxylic acid]
[1]; 0-90% relative humidity
  Hygroscopicity classification: very hygroscopic
[1]; DVS, might be attributed to DMSO evaporation at high humidity
  weight loss after sorption-desorption cycle: about 10%
[1]; Target % P/P0 0.0
  Change in Mass (%) - ref, Desorption: −9.66%
  Change in Mass (%) - ref, Sorption: 0.00%
[1]; Target % P/P0 10.0
  Change in Mass (%) - ref, Desorption: −8.56%
  Change in Mass (%) - ref, Hysteresis: −8.64%
  Change in Mass (%) - ref, Sorption: 0.08%
[1]; Target % P/P0 20.0
  Change in Mass (%) - ref, Desorption: −8.49%
  Change in Mass (%) - ref, Hysteresis: −8.60%
  Change in Mass (%) - ref, Sorption: 0.12%
[1]; Target % P/P0 30.0
  Change in Mass (%) - ref, Desorption: −8.40%
  Change in Mass (%) - ref, Hysteresis: −8.53%
  Change in Mass (%) - ref, Sorption: 0.14%
[1]; Target % P/P0 40.0
  Change in Mass (%) - ref, Desorption: −8.30%
  Change in Mass (%) - ref, Hysteresis: −8.50%
  Change in Mass (%) - ref, Sorption: 0.20%
[1]; Target % P/P0 50.0
  Change in Mass (%) - ref, Desorption: 1.16%
  Change in Mass (%) - ref, Hysteresis: 0.93%
  Change in Mass (%) - ref, Sorption: 0.23%
[1]; Target % P/P0 60.0
  Change in Mass (%) - ref, Desorption: 7.34%
  Change in Mass (%) - ref, Hysteresis: 7.02%
  Change in Mass (%) - ref, Sorption: 0.31%
[1]; Target % P/P0 70.0
  Change in Mass (%) - ref, Desorption: 14.03%
  Change in Mass (%) - ref, Hysteresis: 12.45%
  Change in Mass (%) - ref, Sorption: 1.59%
[1]; Target % P/P0 80.0
  Change in Mass (%) - ref, Desorption: 23.42%
  Change in Mass (%) - ref, Hysteresis: 7.98%
  Change in Mass (%) - ref, Sorption: 15.44%
[1]; Target % P/P0 90.0
  Change in Mass (%) - ref, Desorption: 36.92%
  Change in Mass (%) - ref, Sorption: 36.92%
[2]; 40° C., 60° C. and light at the end of the first and second week
  physical stability (XRPD, DSC, TGA): stable
[2]; 40° C./75% RH at the end of the first week
  physical stability (XRPD, DSC, TGA), form conversion: partially converted to form G
[2]; 40° C./75% RH at the end of the second week
  physical stability (XRPD, DSC, TGA), form conversion: completely converted to form G
[2]; 60° C./75% RH at the end of the first and second weeks
  physical stability (XRPD, DSC, TGA), form conversion: completely converted to form G
[3]; USP buffer pH 6.8, 25 °C, pH 6.8, aqueous buffer, media pH 6.8 (USP), 24 hours at 25° C.
  solubility at 24 h: 1120 µg/mL (≈ 3550 µM)
[3]; [5]
  pH: 2.003
  Visual solubility: few particles
[3]; [6]
  pH: 0.951
  Visual solubility: few particles
[3]; [7]
  pH: 6.384
  HPLC solubility: 513.37 µg/mL
  Visual solubility: Turbid + few particles
[3]; [8]
  pH: 4.995
  HPLC solubility: 180.61 µg/mL
  Visual solubility: Turbid + few particles
[3]; media SGF, 24 hours at 25° C.
  pH: 2.108
  Visual solubility: few particles
[3]; [9]
  pH: 1.157
  Visual solubility: few particles
[3]; [10]
  pH: 4.452
  HPLC solubility: 0.38 µg/mL
  Visual solubility: Turbid + few particles
[3]; [11]
  pH: 6.641
  Visual solubility: Turbid + few particles
[3]; [12]
  pH: 6.960
  HPLC solubility: 4317.12 µg/mL
  Visual solubility: Slightly turbid
[3]; media water, shaken 24 hours at 25° C.
  pH: 7.520
[3]; media water, 24 hours at 25° C.
  Visual solubility: Turbid + few particles
[3]; pH1.2 USP buffer, 0.01N HCl, 0.1N HCl and SGF
  aqueous solubility (in words): poor solubility
[3]; pH6.8 USP buffer, pH7.4 USP buffer, FaSSIF, FeSSIF
  aqueous solubility (in words): good solubility
[3]; water, 25 °C, water, media water, 24 hours at 25° C.
  solubility at 24 h: 54.9 µg/mL (≈ 173 µM)
[4]
  Bulk Density: 0.444 g/mL
  Tapped Density: 0.637 g/mL
[4]; compared among forms V, IX, XI and form G
  bulk and tapped densities (in words): adequate bulk and tapped densities
